How the values were obtained:
enterococci = test: antimicrobial spectrum assay; format: cell-based; conditions: comparison of mutacin I and mutacin III
[1] = reverse-phase HPLC analysis (hydrophobicity); format: physicochemical; conditions: from acetonitrile concentration at elution
Text: For purification, the crude extract of mutacin I (SEQ ID No: 2) was applied to a Source 15RPC column and eluted with a fragmented gradient A (0.1% TFA) and B (0.085% TFA in 60% acetonitrile) using a LKB Purifier (Amersham Pharmacia Biotech, Piscataway, N.J.). The active fractions were pooled and dried in a lyophilizer. The pellet was redissolved in 0.25% TFA and subjected to a second round purification using a fragmented gradient of buffer A (0.1% TFA) and B (0.085% TFA in 80% methanol). The single active peak fraction was collected, dried in a lyophilizer, and used for sequence analysis and electrospray ionization mass spectrometry (EIMS).

pneumococci = test: antimicrobial spectrum assay; format: cell-based; conditions: comparison of mutacin I and mutacin III
[2] = tested on: gram-positive bacteria including the multidrug-resistant Staphylococci and Enterococci; test: spectrum of antimicrobial activity; format: cell-based
Group A streptococci = test: antimicrobial spectrum assay; format: cell-based; conditions: comparison of mutacin I and mutacin III

For “mutacin I: lantibiotic from Streptococcus mutans CH43, twenty-four amino acids in its mature form, approximately 2364 Da (FSSLSLCSLGCTGVKNPSFNSYCC)”, the antimicrobial activity (enterococci) was “equal activities”, the hydrophobicity [1] was “more hydrophobic than mutacin III” and the “pH range of activity” value was “works in a wide range of pH”. The antimicrobial activity (pneumococci) was “equal activities”, the “resistance of sensitive bacteria” value [2] was “resistance to mutacin has not been observed” and the “spectrum of antimicrobial activity” value [2] was “wide spectrum of antimicrobial activity”. The antimicrobial activity (Group A streptococci) was “equal activities”.
